Where “and” joins values, the source holds several entries; their conditions need not be identical. Identical values can stand only once.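 The compound was tested at five concentrations on cells cultured in 96-well plates, with a 48-hour exposure period. GI50 is the concentration that inhibits growth by half. The concentration for full growth arrest is given as TGI.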
Assays:
Test in all cases: inhibition of tumour cell growth, NCI panel, 48 h
[1] = system: PC-3 prostate
[2] = system: SNB-75 CNS
[3] = system: HCC-2998 colon
[4] = system: SW-620 colon
[5] = system: K-562 leukemia
[6] = system: NCI-H522 lung
[7] = system: MDA-MB-231 breast
[8] = system: HS 578T breast
[9] = system: UACC-62 melanoma
[10] = system: UACC-257 melanoma

For CSc1cc(Cl)c(C)cc1S(=O)(=O)NC(=O)NNc1ccccn1, the TGI [1] was greater than 100 µM, the TGI [2] was greater than 100 µM and the TGI [3] was greater than 100 µM. For the same compound, the TGI [4] was greater than 100 µM, the TGI [5] was greater than 100 µM and the TGI [6] was greater than 100 µM. The TGI [7] was greater than 100 µM and the TGI [8] was greater than 100 µM.
COc1cc2cnc3c(c2cc1OC)Cc1cc2c(cc1-3)OCO2 showed a GI50 [1] of less than 0.01 µM, a GI50 [2] of 0.0109 µM and a TGI [2] greater than 49.3 µM. For the same compound, the GI50 [3] was less than 0.01 µM, the TGI [3] was 0.0562 µM and the GI50 [9] was less than 0.01 µM. For the same compound, the TGI [9] was 35.1 µM, the GI50 [4] was less than 0.01 µM and the TGI [4] was greater than 100 µM. It also gave a GI50 [5] of less than 0.01 µM, a TGI [5] greater than 100 µM and a GI50 [6] of less than 0.01 µM. The GI50 [7] was 0.179 µM, the TGI [7] was greater than 100 µM and the GI50 [8] was less than 0.01 µM. For the same compound, the TGI [8] was greater than 100 µM.
For CCCN(CCC)C(=O)Cc1c2n(c3ccccc13)Cc1ccccc1-2, the TGI [2] was greater than 100 µM, the TGI [10] was greater than 100 µM and the TGI [3] was greater than 100 µM. For the same compound, the TGI [9] was greater than 100 µM, the TGI [4] was greater than 100 µM and the TGI [5] was greater than 100 µM. The TGI [6] was greater than 100 µM.
For O=[N+]([O-])c1cccc2nc3ccccc3c(NCCNCCO)c12, the TGI [1] was 0.017 µM, the GI50 [2] was 0.0132 µM and the TGI [2] was 0.0565 µM and 0.0397 µM. For the same compound, the GI50 [10] was 0.0126 µM, the TGI [10] was 0.034 µM and 0.0325 µM and the TGI [3] was 0.0101 µM. For the same compound, the TGI [9] was 0.0315 µM and 0.0174 µM, the TGI [5] was 0.0448 µM and the TGI [6] was 0.00272 µM. For the same compound, the TGI [7] was 0.0668 µM and 0.0816 µM and the TGI [8] was 0.111 µM.
COc1ccc(/C=N/n2c(C)n[nH]c2=O)cc1 gave a TGI [1] greater than 100 µM, a TGI [2] greater than 100 µM and a TGI [10] greater than 100 µM. For the same compound, the TGI [3] was greater than 100 µM, the TGI [9] was greater than 100 µM and the TGI [4] was greater than 100 µM. For the same compound, the TGI [5] was greater than 100 µM and the TGI [7] was greater than 100 µM.
Compound CC1(C)SC2C(NC(=O)Cc3ccccc3)C(=O)N2C1C(=O)O (stereo unspecified) has a TGI [1] greater than 100 µM, a TGI [2] greater than 100 µM and a TGI [10] greater than 100 µM. For the same compound, the TGI [9] was greater than 100 µM, the TGI [4] was greater than 100 µM and the TGI [5] was greater than 100 µM. It also gave a TGI [6] greater than 100 µM, a TGI [7] greater than 100 µM and a TGI [8] greater than 100 µM.
COc1ccc(S(=O)Cc2cc(OC)ccc2OC)cc1 (stereo unspecified) showed a TGI [1] greater than 100 µM, a TGI [2] greater than 100 µM and a TGI [10] greater than 100 µM. It also gave a TGI [3] greater than 100 µM, a TGI [9] greater than 100 µM and a TGI [4] greater than 100 µM. The TGI [5] was greater than 100 µM, the TGI [6] was greater than 100 µM and the TGI [7] was greater than 100 µM.
O=C(/C(Cl)=C/c1ccccc1)c1ccccc1 showed a TGI [1] of 11.6 µM, a TGI [2] of 26.9 µM and a TGI [10] of 19.3 µM. It also gave a TGI [3] of 12.9 µM, a TGI [9] of 22.9 µM and a TGI [5] greater than 26 µM. The TGI [6] was 3.76 µM, the TGI [7] was 20.6 µM and the TGI [8] was 15 µM.
In the case of CCOC(=O)c1c(NC(=O)c2ccccc2)sc2c1CCC2, the TGI [1] is reported as greater than 100 µM, the TGI [2] is reported as greater than 100 µM and the TGI [10] is reported as greater than 100 µM. It also gave a TGI [9] greater than 100 µM, a TGI [5] greater than 100 µM and a TGI [7] greater than 100 µM. For the same compound, the TGI [8] was greater than 100 µM.
Cc1cc(S(N)(=O)=O)c(S/C(=N\Nc2ccc([N+](=O)[O-])cc2)c2ccc(Cl)cc2)cc1Cl was tested, and the TGI [2] was 4.01 µM, the TGI [10] was 8.7 µM and the TGI [9] was 20.2 µM. It also gave a TGI [4] greater than 100 µM, a TGI [5] greater than 100 µM and a TGI [6] of 11.5 µM. It also gave a TGI [7] of 8.27 µM and a TGI [8] greater than 100 µM.
With C/C=C/OC1C(C2COC(C)(C)O2)OC2OC(C)(C)OC21 (stereo unspecified) the TGI [1] was greater than 100 µM, the TGI [2] was greater than 100 µM and the TGI [10] was greater than 100 µM. For the same compound, the TGI [3] was greater than 100 µM, the TGI [4] was greater than 100 µM and the TGI [5] was greater than 100 µM. It also gave a TGI [6] greater than 100 µM, a TGI [7] greater than 100 µM and a TGI [8] greater than 100 µM.
